In US9624280B2 (JANSSEN BIOTECH, INC., priority 2013, dated 2017):
No end group written: not given here.

Assays:
human Nav1.6 = target: T1, human Nav1.6 (Homo sapiens, UniProt Q9UQD0); type: cell-based
T1 construct: expressed in transfected cells

human Nav1.7 = target: T2, human Nav1.7 (Homo sapiens, UniProt Q15858, W1161R); type: cell-based
T2 construct: expressed in transfected cells

C57Bl/6 mice = assay: CFA model of inflammatory pain, thermal hyperalgesia (Hargreaves test); type: in vivo; details: for Thermal MPE %: CFA model, mice, mean±s.e.m. (n)
Experimental: Male C57Bl/6 mice (24-26 g), ordered from Charles River and housed individually, were used for this study.
This box consists of a chamber with a raised glass floor maintained at a constant temperature (27° C.). The thermal nociceptive stimulus originates from a projection bulb light beam below the glass surface. The light beam is aimed at the area between toris (center plantar). The “start” button will turn on the light and start the timer. Movements (such as a sudden withdrawal) of the stimulated paw will trigger the switch to turn off the light and stop the timer. […] If no movement occurs, the bulb will be turned off after 20 seconds (cutoff) to prevent tissue injury. The animals were allowed to habituate on the glass surface for 30-60 minutes before PWL measurement.
Percent maximum possible effect (MPE %)=(T1−T0)/(Tc−T0)×100%. T0: threshold on day0 (post-CFA, pre-pump); T1: threshold on day1 post pump implantation; Tc: cut-off of the test (20 s for the Hargreaves test and 2 g for the Von Frey test)
Animals were anesthetized with isoflurane (4% induction and 2% maintenance) and 20 μL of 100% Complete Freund's Adjuvant (CFA; Sigma-Aldrich; Saint Louis, Mo.) was injected into the center plantar area on one hind paw using a 27 gauge needle attached to a 50 μL Hamilton syringe. Carrageenan model: Animals were anesthetized with isoflurane (4% induction and 2% maintenance) and 25 μL of 2% A-carrageenan (Sigma-Aldrich; Saint Louis, Mo.) dissolved in normal saline was injected into the center plantar area on hind paws using an insulin syringe (BD; Franklin Lakes, N.J.).
Alzet micro-osmotic mini pumps (Durect Corporation Model 1003D and 2001D) were filled and primed per manufacturer's guide. Mice were anesthetized with isoflurane (5% induction; 2% maintenance). Their backs were shaved, wiped down with isopropyl alcohol and povidone iodine, and a small incision was made between the scapulae. Using a pair of forceps or hemostat, a small pocket was formed by spreading the subcutaneous connective tissues apart. The pump was inserted into the pocket with the flow moderator pointing away from the incision. The skin incision was then closed using 7 mm staples and the animals were allowed to recover in their home cages.
Data are represented as mean±s.e.m. Prism (Graphpad Software Inc., La Jolla, Calif.) was used for graphing and statistical analysis. For comparison of threshold values over time, a two-way ANOVA followed by Bonferroni's multiple comparison test was used with a significance level of p<0.05. Hotplate and MPE % data were analyzed by one-way ANOVA followed by Bonferroni's multiple comparison test.

[1] = 1824 μg/day/mouse by subcutaneous osmotic mini-pump
[2] = 684 and 1824 μg/day, subcutaneous osmotic mini-pump
[3] = 228 μg/day/mouse by subcutaneous osmotic mini-pump

T1 sequence (Q9UQD0 whole entry): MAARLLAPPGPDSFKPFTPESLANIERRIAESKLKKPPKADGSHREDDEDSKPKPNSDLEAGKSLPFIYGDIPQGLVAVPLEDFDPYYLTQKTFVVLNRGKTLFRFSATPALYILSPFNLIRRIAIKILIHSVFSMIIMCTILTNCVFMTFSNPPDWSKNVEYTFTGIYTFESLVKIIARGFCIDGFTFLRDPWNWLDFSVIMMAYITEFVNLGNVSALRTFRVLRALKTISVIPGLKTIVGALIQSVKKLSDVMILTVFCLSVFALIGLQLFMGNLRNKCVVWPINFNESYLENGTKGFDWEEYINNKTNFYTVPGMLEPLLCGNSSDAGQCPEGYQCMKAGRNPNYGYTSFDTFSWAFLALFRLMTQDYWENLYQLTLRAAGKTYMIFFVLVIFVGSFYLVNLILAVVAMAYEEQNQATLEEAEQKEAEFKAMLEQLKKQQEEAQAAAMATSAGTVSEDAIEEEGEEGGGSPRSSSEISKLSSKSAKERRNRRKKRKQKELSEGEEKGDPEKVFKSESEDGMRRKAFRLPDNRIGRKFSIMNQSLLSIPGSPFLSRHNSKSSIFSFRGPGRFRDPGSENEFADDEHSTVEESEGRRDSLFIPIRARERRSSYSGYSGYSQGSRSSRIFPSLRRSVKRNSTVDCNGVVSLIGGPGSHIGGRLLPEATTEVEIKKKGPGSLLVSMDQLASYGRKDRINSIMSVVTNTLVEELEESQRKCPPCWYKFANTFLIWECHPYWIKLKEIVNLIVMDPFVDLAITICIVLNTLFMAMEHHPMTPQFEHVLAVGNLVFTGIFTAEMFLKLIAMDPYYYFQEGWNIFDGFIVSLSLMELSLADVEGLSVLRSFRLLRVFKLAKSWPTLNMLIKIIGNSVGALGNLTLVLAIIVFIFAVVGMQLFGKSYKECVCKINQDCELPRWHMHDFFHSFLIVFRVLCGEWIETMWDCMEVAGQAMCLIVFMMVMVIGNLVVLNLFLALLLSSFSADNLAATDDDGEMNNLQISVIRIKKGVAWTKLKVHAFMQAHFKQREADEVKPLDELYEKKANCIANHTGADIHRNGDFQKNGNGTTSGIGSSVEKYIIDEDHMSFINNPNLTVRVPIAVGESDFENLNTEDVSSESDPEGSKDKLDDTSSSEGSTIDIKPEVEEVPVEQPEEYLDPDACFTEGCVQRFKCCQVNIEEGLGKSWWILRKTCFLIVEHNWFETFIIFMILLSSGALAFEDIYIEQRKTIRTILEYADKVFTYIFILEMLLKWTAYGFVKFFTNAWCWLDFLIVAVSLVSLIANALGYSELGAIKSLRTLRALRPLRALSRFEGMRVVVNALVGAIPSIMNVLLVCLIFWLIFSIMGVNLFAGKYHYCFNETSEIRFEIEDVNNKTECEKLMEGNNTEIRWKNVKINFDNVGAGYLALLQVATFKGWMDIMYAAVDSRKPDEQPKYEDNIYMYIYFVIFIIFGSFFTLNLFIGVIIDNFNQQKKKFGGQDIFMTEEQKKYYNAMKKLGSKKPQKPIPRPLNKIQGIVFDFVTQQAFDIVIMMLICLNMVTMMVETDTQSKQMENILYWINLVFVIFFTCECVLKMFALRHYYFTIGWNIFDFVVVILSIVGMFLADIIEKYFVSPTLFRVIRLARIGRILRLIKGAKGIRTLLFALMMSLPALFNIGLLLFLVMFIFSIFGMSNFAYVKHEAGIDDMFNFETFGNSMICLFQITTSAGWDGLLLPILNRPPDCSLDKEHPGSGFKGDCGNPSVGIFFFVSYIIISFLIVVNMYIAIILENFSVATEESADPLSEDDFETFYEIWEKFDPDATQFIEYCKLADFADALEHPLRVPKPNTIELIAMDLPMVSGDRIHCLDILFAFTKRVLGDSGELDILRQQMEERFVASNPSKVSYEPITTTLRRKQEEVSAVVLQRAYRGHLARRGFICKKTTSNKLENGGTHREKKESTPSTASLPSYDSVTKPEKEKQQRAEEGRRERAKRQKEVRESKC

Substance | selectivity for Nav1.7 compared to recombinant Protoxin-II (human Nav1.6) | IC50 (human Nav1.7) [µM] | also measured
Ac-QCQKWMQTCDAERKCCEGFSCTLWCKKKLW-NH2 [(-GP) N-Ac-NV1D2974-NH2] | improved selectivity | – | –
Ac-QCQKWMQTCDRERKCCEGFVCTLWCRKKLW-NH2 [(-GP) N-Ac-NV1D3034-NH2] | improved selectivity | – | –
GPACQKWMQTCDANRKCCEGFSCRLWCKKKLW-OH (cysteine pairing not given here) [NV1D3587] | improved selectivity | – | –
GPACQKWMQTCDRNRKCCEGFVCTLWCRKKLW-OH (cysteine pairing not given here) [NV1D3541] | improved selectivity | – | –
GPCCNCSSKWCRDHSRCCGRGSAPAPAPAPAPAPAPAPAPAPGSQCQKWMQTCDAERKCCEGFVCRLWCKKKLW [NV1D3260] | – | 0.0576 | –
GPCCNCSSKWCRDHSRCCGRGSAPAPAPAPAPAPAPAPAPAPGSQCQKWMQTCDRERKCCEGFVCTLWCRKKLW [NV1D3793] | – | 0.0646 | –
GPCCNCSSKWCRDHSRCCGRGSAPAPAPAPAPGSQCQKWMQTCDAERKCCEGFVCRLWCKKKLW [NV1D3256] | – | 0.0557 | –
GPCCNCSSKWCRDHSRCCGRGSGGGGSAPAPAPAPAPAPAPAPAPAPGGGGSGSQCQKWMQTCDRERKCCEGFVCTLWCRKKLW [NV1D3830] | – | 0.0886 | –
GPCCNCSSKWCRDHSRCCGSAPAPAPAPAPAPAPAPAPAPGSQCQKWMQTCDAERKCCEGFVCRLWCKKKLW [NV1D3262] | – | 0.0892 | –
GPCCNCSSKWCRDHSRCCGSAPAPAPAPAPAPAPAPAPAPGSQCQKWMQTCDRERKCCEGFVCTLWCRKKLW [NV1D3795] | – | 0.1 | –
GPCCNCSSKWCRDHSRCCGSAPAPAPAPAPGSQCQKWMQTCDRERKCCEGFVCTLWCRKKLW [NV1D3796] | – | 0.11 | –
GPCRTIGPSVCAPAPAPAPAPAPAPAPAPAPQCQKWMQTCDRERKCCEGFVCTLWCRKKLW [NV1D3832] | – | 0.0884 | –
GPGWCGDPGATCGKLRLYCCSGFCDAYTKTCKDKSSAGGGGSAPAPAPAPAPAPAPAPAPAPAPAPAPAPAPGGGGSQCQKWMQTCDRERKCCEGFVCTLWCRKKLW [NV1D3824] | – | 0.11 | –
GPGWCGDPGATCGKLRLYCCSGFCDSYTKTCKDKSSAGGGGSAPAPAPAPAPAPAPAPAPAPAPAPAPAPAPGGGGSQCQKWMQTCDRERKCCEGFVCTLWCRKKLW [NV1D3822] | – | 0.0742 | –
GPQCQKWMQSCDRERKCCEGFVCTLWCRKKLW-OH (cysteine pairing not given here) [NV1D3359] | improved selectivity | – | –
GPQCQKWMQTCDAERKCCEGFSCTLWCKKKLW-NH2 [NV1D2974-NH2] | improved selectivity | – | –
GPQCQKWMQTCDAERKCCEGFSCTLWCKKKLW-OH (cysteine pairing not given here) [NV1D2974] | improved selectivity | – | –
GPQCQKWMQTCDAERKCCEGFVCRLWCKKKLW-NH2 [NV1D2775-NH2] | improved selectivity | – | –
GPQCQKWMQTCDAERKCCEGFVCRLWCKKKLWGSAPAPAPAPAPAPAPAPAPAPGSCCNCSSKWCRDHSRCCGR [NV1D3259] | – | 0.0549 | –
GPQCQKWMQTCDARRKCCEGFVCRLWCKKKLW-OH (cysteine pairing not given here) [NV1D3006] | improved selectivity | – | –

Substance | selectivity for Nav1.7 compared to recombinant Protoxin-II (human Nav1.6) | IC50 (human Nav1.7) [µM] | also measured
GPQCQKWMQTCDRERKCCEGFVCTLWCRKKLW-NH2 [NV1D3034-NH2] | improved selectivity | – | –
GPQCQKWMQTCDRERKCCEGFVCTLWCRKKLW-NH-butyl [NV1D3034-NH-butyl] | improved selectivity | – | –
GPQCQKWMQTCDRERKCCEGFVCTLWCRKKLW-NH-methyl [NV1D3034-NH-methyl] | improved selectivity | – | Thermal MPE % (C57Bl/6 mice; [1]): 49 ± 17 (6) %; reversal of CFA-induced thermal hyperalgesia (C57Bl/6 mice; dose not given): readily reversed
GPQCQKWMQTCDRERKCCEGFVCTLWCRKKLW-OH (cysteine pairing not given here) [NV1D3034] | – | – | reversal of CFA-induced thermal hyperalgesia (C57Bl/6 mice; [2]): completely reversed; Thermal MPE % (C57Bl/6 mice; [3]): 22 ± 6 (6) %; Thermal MPE % (C57Bl/6 mice; [1]): 50 ± 6 (8) %
GPQCQKWMQTCDRERKCCEGFVCTLWCRKKLWGGGGSAPAPAPAPAPAPAPAPAPAPAPAPAPAPAPGGGGSGWCGDPGATCGKLRLYCCSGFCDAYTKTCKDKSSA [NV1D3825] | – | 0.194 | –
GPQCQKWMQTCDRERKCCEGFVCTLWCRKKLWGSAPAPAPAPAPAPAPAPAPAPGSCCNCSSKWCRDHSRCC [NV1D3797] | – | 0.0911 | –
GPQCQKWMQTCDRERKCCEGFVCTLWCRKKLWGSAPAPAPAPAPAPAPAPAPAPGSCCNCSSKWCRDHSRCCGR [NV1D3798] | – | 0.0945 | –
GPQCQKWMQTCDRERKCCEGFVCTLWCRKKLWGSAPAPAPAPAPGSCCNCSSKWCRDHSRCC [NV1D3799] | – | 0.0506 | –
GPQCQKWMQTCDRERKCCEGFVCTLWCRKKLWGSAPAPAPAPAPGSCCNCSSKWCRDHSRCCGR [NV1D3800] | – | 0.0609 | –
GPQCQKWMQTCDRERKCCEGFVCTLWCRKKLWGSGGGGSAPAPAPAPAPAPAPAPAPAPGGGGSGSCCNCSSKWCRDHSRCC [NV1D3829] | – | 0.122 | –
GPQCQKWMQTCDRERKCCEGFVCTLWCRKKLWGSGGGGSAPAPAPAPAPAPAPAPAPAPGGGGSGSCCNCSSKWCRDHSRCCGR [NV1D3828] | – | 0.0875 | –
GPQCQKWMQTCDRERKCCQGFVCTLWCRKKLW-OH (cysteine pairing not given here) [NV1D3388] | improved selectivity | – | –
GPQCQKWMQTCDRNRKCCEGFVCTLWCRKKLW-OH (cysteine pairing not given here) [NV1D3044] | improved selectivity | – | –
GPQCQKWMQTCDRTRKCCEGFVCTLWCRKKLW-NH2 [NV1D3368-NH2] | improved selectivity | – | Thermal MPE % (C57Bl/6 mice; [3]): 27 ± 4 (4) %; Thermal MPE % (C57Bl/6 mice; [1]): 55 ± 15 (6) %; reversal of CFA-induced thermal hyperalgesia (C57Bl/6 mice; dose not given): readily reversed
GPQCQKWMQTCDRTRKCCEGFVCTLWCRKKLW-OH (cysteine pairing not given here) [NV1D3368] | improved selectivity | – | reversal of CFA-induced thermal hyperalgesia (C57Bl/6 mice; [2]): fully reversed; Thermal MPE % (C57Bl/6 mice; [3]): 23 ± 8 (7) %; Thermal MPE % (C57Bl/6 mice; [1]): 47 ± 6 (8) %
GPRCQKWMQTCDAERKCCEGFVCRLWCKKKLW-OH (cysteine pairing not given here) [NV1D2772] | improved selectivity | – | –
GPSHSNTQTLAKAPEHTGAPAPAPAPAPAPAPAPAPAPQCQKWMQTCDRERKCCEGFVCTLWCRKKLW [NV1D3774] | – | 0.0886 | –
GPYCQKWMQTCDANRKCCEGFSCRLWCKKKLW-NH2 [NV1D3586-NH2] | improved selectivity | – | –
GPYCQKWMQTCDANRKCCEGFSCRLWCKKKLW-OH (cysteine pairing not given here) [NV1D3586] | improved selectivity | – | –
